Data reported in US10941157B2, “Pesticidal compositions and uses thereof” (Gilead Apollo, LLC, priority 2015, dated 2021).
≈ marks a conversion by molar mass, not a printed value. Like-named read-outs stand apart in the source and are kept apart here. Each block holds one compound with its values, some of them ahead of it.

Assays:
Type in all cases: cell-based
Rhizoctonia solani (Rs) = assay: In vitro pathogen growth inhibition assay, Rs (mycelial plugs); conditions: Rhizoctonia solani, 48 h, mycelial plugs
Outline: (§1)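 Spores of Dm, Fv and Pc were diluted in 17% V8 liquid medium; Rs used 1.5 mm mycelial plugs in ¼ PDB. Compounds from 2.5 mg/ml DMSO stocks were combined with inoculum, growth was read by OD600 at 24 and 48 h with blank subtraction, and the reported value is the concentration giving ≥90% inhibition.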

[1] = system: Fusarium moniliforme (Fm); assay: In vitro pathogen growth inhibition assay, Fm; conditions: Fusarium verticillioides
Outline: (§2)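 Spores in 17% V8 liquid medium, or 1.5 mm Rs mycelial plugs in ¼ PDB, incubated with compound; final concentration checked by OD600 for precipitation. OD readings at 24 and 48 h, blank-subtracted, plus visual ratings; value is concentration giving ≥90% growth inhibition.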

[2] = system: Fusarium virguliforme (Fv); assay: In vitro pathogen growth inhibition assay, Fv
Outline: as §1

[3] = system: Phytophthora capsici (Pc); assay: In vitro pathogen growth inhibition assay, Pc; conditions: 48 h
Outline: as §1

Septoria tritici (St) = assay: In vitro pathogen growth inhibition assay, St; conditions: Zymoseptoria tritici, 48 h
Outline: as §2

[4] = system: Collectotrichum graminicola (Cg); assay: In vitro pathogen growth inhibition assay, Cg; conditions: 48 h
Outline: as §2

Diplodia maydis (Dm) = assay: In vitro pathogen growth inhibition assay, Dm; conditions: Stenocarpella maydis, 48 h
Outline: as §1

Botrtyis cinerea (Bc) = assay: In vitro pathogen growth inhibition assay, Bc; conditions: 48 h
Outline: as §2

[5] = ≥90% growth inhibition, 48 hours, vs 2% DMSO control, read-out: Compound Concentration (ppm) sufficient for ≥90% inhibition of Rs
[6] = ≥90% growth inhibition, 48 hours, vs 2% DMSO control, read-out: Compound Concentration (ppm) sufficient for ≥90% inhibition of Fm
[7] = ≥90% growth inhibition, 48 hours, vs 2% DMSO control, read-out: Compound Concentration (ppm) sufficient for ≥90% inhibition of Fv
[8] = ≥90% growth inhibition, 48 hours, vs 2% DMSO control, read-out: Compound Concentration (ppm) sufficient for ≥90% inhibition of Pc
[9] = ≥90% growth inhibition, 48 hours, vs 2% DMSO control, read-out: Compound Concentration (ppm) sufficient for ≥90% inhibition of St
[10] = ≥90% growth inhibition, 48 hours, vs 2% DMSO control, read-out: Compound Concentration (ppm) sufficient for ≥90% inhibition of Cg
[11] = ≥90% growth inhibition, 48 hours, vs 2% DMSO control, read-out: Compound Concentration (ppm) sufficient for ≥90% inhibition of Dm
[12] = ≥90% growth inhibition, 48 hours, vs 2% DMSO control, read-out: Compound Concentration (ppm) sufficient for ≥90% inhibition of Bc
[13] = ≥90% inhibition, 48 hours vs 2% DMSO control, read-out: Compound Concentration (ppm) sufficient for ≥90% inhibition of growth, Rs
[14] = ≥90% inhibition, 48 hours vs 2% DMSO control, read-out: Compound Concentration (ppm) sufficient for ≥90% inhibition of growth, Fm
[15] = ≥90% inhibition, 48 hours vs 2% DMSO control, read-out: Compound Concentration (ppm) sufficient for ≥90% inhibition of growth, Fv
[16] = ≥90% inhibition, 48 hours vs 2% DMSO control, read-out: Compound Concentration (ppm) sufficient for ≥90% inhibition of growth, Pc
[17] = ≥90% inhibition, 48 hours vs 2% DMSO control, read-out: Compound Concentration (ppm) sufficient for ≥90% inhibition of growth, St
[18] = ≥90% inhibition, 48 hours vs 2% DMSO control, read-out: Compound Concentration (ppm) sufficient for ≥90% inhibition of growth, Cg
[19] = ≥90% inhibition, 48 hours vs 2% DMSO control, read-out: Compound Concentration (ppm) sufficient for ≥90% inhibition of growth, Dm
[20] = ≥90% inhibition, 48 hours vs 2% DMSO control, read-out: Compound Concentration (ppm) sufficient for ≥90% inhibition of growth, Bc

Compound: COc1ccc(F)cc1[C@H](Cn1c(=O)n(C(C)C(=O)NC(C)C)c(=O)c2c(C)c(-n3cccn3)sc21)OC(C)C (some centres unmarked) [Compound I-126]
- IC90 (Rhizoctonia solani (Rs); [13]): 2 µg/mL (≈ 3.5 µM)
- IC90 [1, 14]: 0.4 µg/mL (≈ 0.7 µM)
- IC90 [2, 15]: 1.2 µg/mL (≈ 2.1 µM)
- IC90 [3, 16]: 50 µg/mL (≈ 87.5 µM)
- IC90 (Septoria tritici (St); [17]): 50 µg/mL (≈ 87.5 µM)
- IC90 [4, 18]: 2 µg/mL (≈ 3.5 µM)
- IC90 (Diplodia maydis (Dm); [19]): 2 µg/mL (≈ 3.5 µM)
- IC90 (Botrtyis cinerea (Bc); [20]): 2 µg/mL (≈ 3.5 µM)

Compound: COc1ccc(F)cc1[C@H](Cn1c(=O)n(C(C)(C)C(=O)NCC#N)c(=O)c2c(C)c(-n3nccn3)sc21)OC(C)C [Compound I-160]
- IC90 (Rhizoctonia solani (Rs); [13]): ≥ 50 µg/mL
- IC90 [1, 14]: 2 µg/mL (≈ 3.43 µM)
- IC90 [2, 15]: 2 µg/mL (≈ 3.43 µM)
- IC90 [3, 16]: > 50 µg/mL
- IC90 (Septoria tritici (St); [17]): > 50 µg/mL
- IC90 [4, 18]: ≥ 10 µg/mL
- IC90 (Diplodia maydis (Dm); [19]): 10 µg/mL (≈ 17.1 µM)
- IC90 (Botrtyis cinerea (Bc); [20]): 2 µg/mL (≈ 3.43 µM)

Compound: COc1ccccc1[C@H](Cn1c(=O)n(C(C)(C)C(=O)NC(C)C)c(=O)c2c(C)c(-n3cccn3)sc21)OCC(C)C [Compound I-119]
- IC90 (Rhizoctonia solani (Rs); [13]): 2 µg/mL (≈ 3.44 µM)
- IC90 [1, 14]: 0.4 µg/mL (≈ 0.688 µM)
- IC90 [2, 15]: 10 µg/mL (≈ 17.2 µM)
- IC90 [3, 16]: > 50 µg/mL
- IC90 (Septoria tritici (St); [17]): > 50 µg/mL
- IC90 [4, 18]: 10 µg/mL (≈ 17.2 µM)
- IC90 (Diplodia maydis (Dm); [19]): ≥ 2 µg/mL
- IC90 (Botrtyis cinerea (Bc); [20]): 2 µg/mL (≈ 3.44 µM)

Compound: CCOC(=O)c1sc2c(c1C)c(=O)n(C(C)(C)C(N)=O)c(=O)n2C[C@H](OCCC#N)c1cc(F)ccc1OC [Compound I-180]
- IC90 (Rhizoctonia solani (Rs); [5]): 10 µg/mL (≈ 17.8 µM)
- IC90 [1, 6]: 0.4 µg/mL (≈ 0.714 µM)
- IC90 [2, 7]: 10 µg/mL (≈ 17.8 µM)
- IC90 [3, 8]: > 50 µg/mL
- IC90 (Septoria tritici (St); [9]): > 50 µg/mL
- IC90 [4, 10]: 50 µg/mL (≈ 89.2 µM)
- IC90 (Diplodia maydis (Dm); [11]): > 50 µg/mL
- IC90 (Botrtyis cinerea (Bc); [12]): 2 µg/mL (≈ 3.57 µM)

Compound: CCNC(=O)C(C)(C)n1c(=O)c2c(C)c(-n3cccn3)sc2n(C[C@H](OCCC#N)c2cc(F)ccc2OC)c1=O [Compound I-235]
- IC90 (Rhizoctonia solani (Rs); [5]): 2 µg/mL (≈ 3.43 µM)
- IC90 [1, 6]: 0.4 µg/mL (≈ 0.687 µM)
- IC90 [2, 7]: 2 µg/mL (≈ 3.43 µM)
- IC90 [3, 8]: > 50 µg/mL
- IC90 (Septoria tritici (St); [9]): > 50 µg/mL
- IC90 [4, 10]: 2 µg/mL (≈ 3.43 µM)
- IC90 (Diplodia maydis (Dm); [11]): ≥ 2 µg/mL
- IC90 (Botrtyis cinerea (Bc); [12]): 2 µg/mL (≈ 3.43 µM)

The next lines start with the values.

- IC90 (Rhizoctonia solani (Rs); [5]): 0.08 µg/mL (≈ 0.131 µM)
- IC90 [1, 6]: 0.08 µg/mL (≈ 0.131 µM)
- IC90 [2, 7]: 0.08 µg/mL (≈ 0.131 µM)
- IC90 [3, 8]: > 50 µg/mL
- IC90 (Septoria tritici (St); [9]): > 50 µg/mL
- IC90 [4, 10]: 0.4 µg/mL (≈ 0.656 µM)
- IC90 (Diplodia maydis (Dm); [11]): 2 µg/mL (≈ 3.28 µM)
- IC90 (Botrtyis cinerea (Bc); [12]): 0.4 µg/mL (≈ 0.656 µM)
Compound: Cc1c(-n2nccn2)sc2c1c(=O)n(C(C)(C)C(=O)NC(C)C)c(=O)n2C[C@H](OC(C)C)c1cc(F)ccc1CCC#N [Compound I-277]

- IC90 (Rhizoctonia solani (Rs); [5]): 2 µg/mL (≈ 3.35 µM)
- IC90 [1, 6]: 2 µg/mL (≈ 3.35 µM)
- IC90 [2, 7]: 50 µg/mL (≈ 83.8 µM)
- IC90 [3, 8]: > 50 µg/mL
- IC90 (Septoria tritici (St); [9]): ≥ 50 µg/mL
- IC90 [4, 10]: 2 µg/mL (≈ 3.35 µM)
- IC90 (Diplodia maydis (Dm); [11]): 10 µg/mL (≈ 16.8 µM)
- IC90 (Botrtyis cinerea (Bc); [12]): 10 µg/mL (≈ 16.8 µM)
Compound: COc1ccc(F)cc1[C@H](Cn1c(=O)n([C@@H](C)C(=O)N(C)C(C)C)c(=O)c2c(C)c(-n3cccn3)sc21)OCCC#N [Compound I-243]

- IC90 (Rhizoctonia solani (Rs); [5]): 0.4 µg/mL (≈ 0.737 µM)
- IC90 [1, 6]: 0.4 µg/mL (≈ 0.737 µM)
- IC90 [2, 7]: 0.4 µg/mL (≈ 0.737 µM)
- IC90 [3, 8]: > 50 µg/mL
- IC90 (Septoria tritici (St); [9]): 50 µg/mL (≈ 92.2 µM)
- IC90 [4, 10]: 2 µg/mL (≈ 3.69 µM)
- IC90 (Diplodia maydis (Dm); [11]): 10 µg/mL (≈ 18.4 µM)
- IC90 (Botrtyis cinerea (Bc); [12]): 2 µg/mL (≈ 3.69 µM)
Compound: COc1ccc(F)cc1[C@@H](O)Cn1c(=O)n([C@H](C)C(=O)N2CCCC2)c(=O)c2c(C)c(-n3nccn3)sc21 [Compound I-222]

- IC90 (Rhizoctonia solani (Rs); [5]): 0.4 µg/mL (≈ 0.681 µM)
- IC90 [1, 6]: 0.4 µg/mL (≈ 0.681 µM)
- IC90 [2, 7]: 2 µg/mL (≈ 3.4 µM)
- IC90 [3, 8]: 10 µg/mL (≈ 17 µM)
- IC90 (Septoria tritici (St); [9]): ≥ 50 µg/mL
- IC90 [4, 10]: 2 µg/mL (≈ 3.4 µM)
- IC90 (Diplodia maydis (Dm); [11]): 10 µg/mL (≈ 17 µM)
- IC90 (Botrtyis cinerea (Bc); [12]): 2 µg/mL (≈ 3.4 µM)
Compound: COc1ccc(F)cc1[C@H](Cn1c(=O)n([C@@H](C)C(=O)N(C)C(C)C)c(=O)c2c(C)c(-n3cccn3)sc21)OCCO [Compound I-244]

- IC90 (Rhizoctonia solani (Rs); [13]): 0.08 µg/mL (≈ 0.125 µM)
- IC90 [1, 14]: 0.08 µg/mL (≈ 0.125 µM)
- IC90 [2, 15]: 0.4 µg/mL (≈ 0.626 µM)
- IC90 [3, 16]: > 50 µg/mL
- IC90 (Septoria tritici (St); [17]): > 50 µg/mL
- IC90 [4, 18]: 0.4 µg/mL (≈ 0.626 µM)
- IC90 (Diplodia maydis (Dm); [19]): 0.4 µg/mL (≈ 0.626 µM)
- IC90 (Botrtyis cinerea (Bc); [20]): 2 µg/mL (≈ 3.13 µM)
Compound: COc1ccc(F)cc1[C@H](Cn1c(=O)n(C(C)(C)C(=O)N2CC=CC2)c(=O)c2c(C)c(-n3nccn3)sc21)OC1CCOCC1 [Compound I-075]
